US8853258B2, “C-linked hydroxamic acid derivatives useful as antibacterial agents” (Pfizer Inc., priority 2009, dated 2014)
Converted amounts (≈) assume the structure as drawn.

Legend:
Assay type in all cases: cell-based
[1] = test system: Pseudomonas aeruginosa UI-18: Wild-type (PA-7); experiment: MIC determination (CLSI), PA-7; settings: for PA-7 MIC: Pseudomonas aeruginosa UI-18 wild-type PA-7; for MIC: Pseudomonas aeruginosa, Table 1, read-out: PA-7 (MIC)
Method: (§1) The in vitro antibacterial activity of compounds described in the Examples was evaluated by minimum inhibitory concentration (MIC) testing according to Clinical and Laboratory Standards Institute (CLSI, formerly NCCLS) guidelines. See: Clinical and Laboratory Standards Institute. Methods for Dilution Antimicrobial Susceptibility Tests for Bacteria that Grow Aerobically; Approved Standard-Seventh Edition. CLSI document M7-A7 [ISBN 1-56238-587-9]. Clinical and Laboratory Standards Institute, 940 West Valley Road, Suite 1400, Wayne, Pa. 19087-1898 USA, 2006; also Clinical and Laboratory Standards Institute. Performance Standards for Antimicrobial Susceptibility Testing; Eighteenth Informational Supplement. CLSI document M100-S18 [ISBN1-56238-653-0]. Clinical and Laboratory Standards Institute.
(§2) The following bacterial strains were used in these MIC determinations:
1) Pseudomonas aeruginosa UI-18: Wild-type, labeled as PA-7 in Tables 1, 2 and 3;

[2] = test system: Escherichia coli EC-1: VOGEL, mouse virulent; experiment: MIC determination (CLSI), EC-1; settings: for EC-1 MIC: Escherichia coli EC-1 VOGEL, mouse virulent; for MIC: Escherichia coli, read-out: EC-1: (MIC)
Method: as §1, §2
3) Escherichia coli EC-1: VOGEL, mouse virulent labeled as EC-1 in Tables 1, 2 and 3;

[3] = test system: Klebsiella pneumoniae: Ciprofloxacin-resistant isolate, ESBL, clinical isolate (KP-3700); experiment: MIC determination (CLSI), KP-3700
Method: as §1, §2
4) Klebsiella pneumoniae: Ciprofloxacin-resistant isolate, expresses extended-spectrum beta-lactamases (ESBL), clinical isolate, labeled as KP-3700 in Tables 1, 2, and 3.

[4] = test system: Acinetobacter baumanii/haemolyticus: Multidrug-resistant clinical isolate (AB-3167); experiment: MIC determination (CLSI), AB-3167; settings: for AB-3167 MIC: Acinetobacter baumanii/haemolyticus multidrug-resistant clinical isolate AB-3167; for MIC: Acinetobacter baumannii, Table 1, read-out: AB-3167 (MIC)
Method: as §1, §2
2) Acinetobacter baumanii/haemolyticus: Multidrug-resistant clinical isolate labeled as AB-3167 in Tables 1, 2 and 3;

CC(CCc1ccc(-c2cncnc2)cc1)(C(=O)NO)S(C)(=O)=O (racemic) [Example 80]
PA-7 MIC [1]: 8 µg/mL | EC-1 MIC [2]: 8 µg/mL | KP-3700 MIC [3]: 32 µg/mL | AB-3167 MIC [4]: ≧64 mg/L

CC(CCc1ccc(-c2ccc(C#N)s2)cc1)(C(=O)NO)S(C)(=O)=O (racemic) [Example 82]
PA-7 MIC [1]: 0.5 µg/mL | EC-1 MIC [2]: 0.5 µg/mL | KP-3700 MIC [3]: 2 µg/mL | AB-3167 MIC [4]: 8 µg/mL

CC(CCc1ccc(-c2cccc(CO)c2)cc1)(C(=O)NO)S(C)(=O)=O (racemic) [Example 84]
PA-7 MIC [1]: 16 µg/mL | EC-1 MIC [2]: ≧64 mg/L | KP-3700 MIC [3]: ≧64 mg/L | AB-3167 MIC [4]: ≧64 mg/L

CNC(=O)c1ccc(-c2ccc(CCC(C)(C(=O)NO)S(C)(=O)=O)cc2)cc1 (racemic) [Example 85]
PA-7 MIC [1]: 16 µg/mL | EC-1 MIC [2]: 32 µg/mL | KP-3700 MIC [3]: ≧64 mg/L | AB-3167 MIC [4]: ≧64 mg/L

COc1ccc(-c2ccc(CCC(C)(C(=O)NO)S(C)(=O)=O)cc2)c(C)n1 (racemic) [Example 86]
PA-7 MIC [1]: 4 µg/mL | EC-1 MIC [2]: 8 µg/mL | KP-3700 MIC [3]: 32 µg/mL | AB-3167 MIC [4]: ≧64 mg/L

Cc1cccc(-c2ccc(CCC(C)(C(=O)NO)S(C)(=O)=O)cc2)c1 (racemic) [Example 87]
PA-7 MIC [1]: 1 µg/mL | EC-1 MIC [2]: 2 µg/mL | KP-3700 MIC [3]: 4 µg/mL | AB-3167 MIC [4]: 8 µg/mL

COc1cccc(-c2ccc(CCC(C)(C(=O)NO)S(C)(=O)=O)cc2)c1F (racemic) [Example 89]
PA-7 MIC [1]: 0.5 µg/mL | EC-1 MIC [2]: 0.5 µg/mL | KP-3700 MIC [3]: 1 µg/mL | AB-3167 MIC [4]: 16 µg/mL

CC(CCc1ccc(-c2cc(Cl)ccc2F)cc1)(C(=O)NO)S(C)(=O)=O (racemic) [Example 90]
PA-7 MIC [1]: 8 µg/mL | EC-1 MIC [2]: 8 µg/mL | KP-3700 MIC [3]: 8 µg/mL | AB-3167 MIC [4]: 8 µg/mL

CC(CCc1ccc(-c2ccccc2)nc1)(C(=O)NO)S(C)(=O)=O (stereo not drawn) [Example 3, N-Hydroxy-2-methyl-2-(methylsulfonyl)-4-(6-phenylpyridin-3-yl)butanamide]
MIC [1]: 16 µg/mL (≈ 45.9 µM) | MIC [2]: 16 µg/mL (≈ 45.9 µM) | KP-3700 MIC [3]: ≧64 mg/L | MIC [4]: ≥ 64 µg/mL

CC(CCc1ccc(-c2ccccc2)cn1)(C(=O)NO)S(C)(=O)=O (stereo not drawn) [Example 4, N-Hydroxy-2-methyl-2-(methylsulfonyl)-4-(5-phenylpyridin-2-yl)butanamide]
MIC [1]: 8 µg/mL (≈ 23 µM) | MIC [2]: 16 µg/mL (≈ 45.9 µM) | KP-3700 MIC [3]: ≧64 mg/L | MIC [4]: ≥ 64 µg/mL

C[C@@](CCc1ccc(-c2ccccc2)cc1)(C(=O)NO)S(C)(=O)=O [Example 7, (2R)-4-Biphenyl-4-yl-N-hydroxy-2-methyl-2-(methylsulfonyl)butanamide]
MIC [1]: 0.5 µg/mL (≈ 1.44 µM) | MIC [2]: 0.5 µg/mL (≈ 1.44 µM) | KP-3700 MIC [3]: 2 µg/mL | MIC [4]: 16 µg/mL (≈ 46.1 µM)

CC(CCc1ccc(-c2ccccc2O)cc1)(C(=O)NO)S(C)(=O)=O (stereo not drawn) [Example 8, N-Hydroxy-4-(2′-hydroxybiphenyl-4-yl)-2-methyl-2-(methylsulfonyl)butanamide]
MIC [1]: 8 µg/mL (≈ 22 µM) | MIC [2]: ≥ 64 µg/mL | KP-3700 MIC [3]: ≧64 mg/L | MIC [4]: ≥ 64 µg/mL

CC(CCc1ccc(Oc2ccccc2)cc1)(C(=O)NO)S(C)(=O)=O (stereo not drawn) [Example 10, N-Hydroxy-2-methyl-2-(methylsulfonyl)-4-(4-phenoxyphenyl)butanamide]
MIC [1]: 8 µg/mL (≈ 22 µM) | MIC [2]: 16 µg/mL (≈ 44 µM) | KP-3700 MIC [3]: 32 µg/mL | MIC [4]: 32 µg/mL (≈ 88 µM)

CC(CCc1ccc(-n2cccn2)cc1)(C(=O)NO)S(C)(=O)=O (stereo not drawn) [Example 11, N-Hydroxy-2-methyl-2-(methylsulfonyl)-4-[4-(1H-pyrazol-1-yl)phenyl]butanamide]
MIC [1]: 16 µg/mL (≈ 47.4 µM) | MIC [2]: ≥ 64 µg/mL | KP-3700 MIC [3]: ≧64 mg/L | MIC [4]: ≥ 64 µg/mL

COc1cc(CCC(C)(C(=O)NO)S(C)(=O)=O)ccc1-c1ccc(F)cc1 (stereo not drawn) [Example 20, 4-(4′-Fluoro-2-methoxybiphenyl-4-yl)-N-hydroxy-2-methyl-2-(methylsulfonyl)butanamide]
MIC [1]: 16 µg/mL (≈ 40.5 µM) | MIC [2]: 1 µg/mL (≈ 2.53 µM) | KP-3700 MIC [3]: 8 µg/mL | MIC [4]: ≥ 64 µg/mL

CS(=O)(=O)C(CCc1ccc(-c2ccc(F)cc2)cc1)C(=O)NO (stereo not drawn) [Example 24, 4-(4′-Fluorobiphenyl-4-yl)-N-hydroxy-2-(methylsulfonyl)butanamide]
MIC [1]: 1 µg/mL (≈ 2.85 µM) | MIC [2]: 32 µg/mL (≈ 91.1 µM) | KP-3700 MIC [3]: 32 µg/mL | MIC [4]: 32 µg/mL (≈ 91.1 µM)

CC(CCc1ccc(-c2ccc(F)cc2)cc1)(C(=O)NO)S(C)(=O)=O (stereo not drawn) [Example 27]
PA-7 MIC [1]: 1 µg/mL | EC-1 MIC [2]: 2 µg/mL | KP-3700 MIC [3]: 4 µg/mL | AB-3167 MIC [4]: 8 µg/mL

CS(=O)(=O)C(CCc1ccc(-c2ccc(C#N)cc2)cc1)C(=O)NO (stereo not drawn) [Example 28]
PA-7 MIC [1]: 2 µg/mL | EC-1 MIC [2]: 32 µg/mL | KP-3700 MIC [3]: ≧64 mg/L | AB-3167 MIC [4]: ≧64 mg/L

CC(CCc1ccc(-c2ccc(C#N)cc2)cc1)(C(=O)NO)S(C)(=O)=O (stereo not drawn) [Example 29]
PA-7 MIC [1]: 1 µg/mL | EC-1 MIC [2]: 1 µg/mL | KP-3700 MIC [3]: 2 µg/mL | AB-3167 MIC [4]: ≧64 mg/L

CC(CCc1ccc(Br)cc1)(C(=O)NO)S(C)(=O)=O (stereo not drawn) [Example 32]
PA-7 MIC [1]: 32 µg/mL | EC-1 MIC [2]: 32 µg/mL | KP-3700 MIC [3]: ≧64 mg/L | AB-3167 MIC [4]: ≧64 mg/L

COc1ccc(-c2ccc(CCC(C)(C(=O)NO)S(C)(=O)=O)cc2)cc1OC (stereo not drawn) [Example 33]
PA-7 MIC [1]: 16 µg/mL | EC-1 MIC [2]: 16 µg/mL | KP-3700 MIC [3]: 32 µg/mL | AB-3167 MIC [4]: ≧64 mg/L

CN(C)c1ccc(-c2ccc(CCC(C)(C(=O)NO)S(C)(=O)=O)cc2)cn1 (stereo not drawn) [Example 35]
PA-7 MIC [1]: 32 µg/mL | EC-1 MIC [2]: 4 µg/mL | KP-3700 MIC [3]: 16 µg/mL | AB-3167 MIC [4]: ≧64 mg/L

CS(=O)(=O)C(CCc1ccc(-c2ccccc2)cc1)C(=O)NO (stereo not drawn) [Example 36]
PA-7 MIC [1]: 2 µg/mL | EC-1 MIC [2]: 16 µg/mL | KP-3700 MIC [3]: 16 µg/mL | AB-3167 MIC [4]: 32 µg/mL

Cc1cc(-c2ccc(CCC(C)(C(=O)NO)S(C)(=O)=O)cc2)cnc1N(C)C (stereo not drawn) [Example 37]
PA-7 MIC [1]: 16 µg/mL | EC-1 MIC [2]: 16 µg/mL | KP-3700 MIC [3]: ≧64 mg/L | AB-3167 MIC [4]: ≧64 mg/L
